In data set [1] the test system is Escherichia coli ATCC 25922. As to the kind of experiment: in vitro bacteria attachment assay on coated surgical mesh discs in SST medium. It counts as cell-based. The settings on record: serum containing media. On the procedure:
(§1) Taurolidine was dissolved at 4% wt./vol. in a 70% acetone 30% water vol./vol. mixture. Protamine sulfate was dissolved at 10% wt./vol. in water under warming. 50 μl of the taurolidine (TU) solution and 20 μl of the protamine (PS) solution were applied to each mesh disk using a pipette and allowed to dry at 50° C. until the majority of the liquid was gone and then stored under vacuum. First the taurolidine solution was applied, and then immediately thereafter the protamine sulfate solution was applied. The in vitro bacteria attachment assay was developed for its utility of indicating biofilm prevention potential of prototype mesh. Since bacterial attachment to a surface is the first step of biofilm formation, a surface treatment that inhibits bacterial attachment would reduce the chance of subsequent biofilm formation. The assay was conducted in SST (Serum Saline TSB) medium to mimic in vivo and clinical conditions. The formulation of SST is Tryptic Soy Broth (TSB):serum:saline in the ratio of 1:2:7. Each test article was incubated in SST inoculated with Staphylococcus aureus ACTT 6538 or Escherichia coli ATCC 25922 at about 6 Log CFU/ml. […] Viable bacteria populations were measured by plate count on TSA (Tryptic Soy agar) medium contain neutralizing agents. […]

For data set [2], the system named is Staphylococcus aureus ACTT 6538. Described as above. It counts as cell-based. Particulars: serum containing media. The protocol:
as §1

The conditions of data set [3]: cited from earlier work.

SMILES strings stand for the structures.

For `O=S1(=O)CCN(CN2CCS(=O)(=O)NC2)CN1` [TU, bis(1,1-dioxoperhydro-1,2,4-thiadiazinyl-4)-methane], in data set [1], the “inhibition of attachment by E. coli to treated mesh surface” value was “less inhibition than the combination”. Also, the “inhibition of attachment by S. aureus to treated mesh surface” value in data set [2] is “less inhibition than the combination”. Further, the “cumulative dose shown to be safe and well tolerated” value in data set [3] (cumulative doses) was “exceeding 300 g”. The “systemic dose shown to be safe and well tolerated” value in data set [3] (systemic doses) is recorded as “exceeding 40 g/day”.

Values taken from patent US20130084319A1, “BROAD-SPECTRUM ANTIMICROBIAL COMPOSITIONS BASED ON COMBINATIONS OF TAUROLIDINE AND PROTAMINE AND MEDICAL DEVICES CONTAINING SUCH COMPOSITIONS” (priority 2011, published 2013).
